Data taken from patent publication US6541195B2, “Correction of genetic defects using chemical chaperones” (The Regents of the University of California, priority 1996, dated 2003).
Read-outs that look alike come from different tables or passages of the source.

Columns and labels:
[1] = target: conversion of PrP^C to PrP^Sc (Mus musculus, UniProt P04925); type: cell-based; details: for reduction of the amount of detergent insoluble PrP: 100 mM
[2] = tested on: ScN2a cells
[3] = tested on: temperature sensitive form of pp60^src; type: cell-based, Rous sarcoma virus; details: 39.5° C.
[4] = target: temperature sensitive (ts) mutant p53 protein (Mus musculus, UniProt P02340, A135V); assay: Intracellular localization of temperature sensitive p53 in A1-5 cells by indirect immunofluorescence; details: 39.5° C., after 2 D treatment
Chain of temperature sensitive (ts) mutant p53 protein (P02340 whole entry A135V): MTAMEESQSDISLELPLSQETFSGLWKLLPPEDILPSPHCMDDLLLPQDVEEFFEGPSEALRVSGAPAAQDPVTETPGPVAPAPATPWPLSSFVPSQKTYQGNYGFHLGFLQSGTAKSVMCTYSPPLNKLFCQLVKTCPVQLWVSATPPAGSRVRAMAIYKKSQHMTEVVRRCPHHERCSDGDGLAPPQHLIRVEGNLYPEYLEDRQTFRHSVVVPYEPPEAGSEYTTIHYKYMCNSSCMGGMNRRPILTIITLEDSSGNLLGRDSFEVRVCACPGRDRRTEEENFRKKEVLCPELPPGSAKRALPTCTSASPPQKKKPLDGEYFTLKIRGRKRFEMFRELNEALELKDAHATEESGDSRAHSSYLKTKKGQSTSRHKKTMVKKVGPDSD

[5] = target: T1, ΔF508 CFTR (Homo sapiens, UniProt P13569, DEL508-508); assay: Western blotting of ΔF508 CFTR processing and maturation in transfected NIH 3T3 cells; type: cell-based
T1 construct: expressed in transfected cells
T1 sequence (P13569 with tags, fused parts or gaps DEL508-508): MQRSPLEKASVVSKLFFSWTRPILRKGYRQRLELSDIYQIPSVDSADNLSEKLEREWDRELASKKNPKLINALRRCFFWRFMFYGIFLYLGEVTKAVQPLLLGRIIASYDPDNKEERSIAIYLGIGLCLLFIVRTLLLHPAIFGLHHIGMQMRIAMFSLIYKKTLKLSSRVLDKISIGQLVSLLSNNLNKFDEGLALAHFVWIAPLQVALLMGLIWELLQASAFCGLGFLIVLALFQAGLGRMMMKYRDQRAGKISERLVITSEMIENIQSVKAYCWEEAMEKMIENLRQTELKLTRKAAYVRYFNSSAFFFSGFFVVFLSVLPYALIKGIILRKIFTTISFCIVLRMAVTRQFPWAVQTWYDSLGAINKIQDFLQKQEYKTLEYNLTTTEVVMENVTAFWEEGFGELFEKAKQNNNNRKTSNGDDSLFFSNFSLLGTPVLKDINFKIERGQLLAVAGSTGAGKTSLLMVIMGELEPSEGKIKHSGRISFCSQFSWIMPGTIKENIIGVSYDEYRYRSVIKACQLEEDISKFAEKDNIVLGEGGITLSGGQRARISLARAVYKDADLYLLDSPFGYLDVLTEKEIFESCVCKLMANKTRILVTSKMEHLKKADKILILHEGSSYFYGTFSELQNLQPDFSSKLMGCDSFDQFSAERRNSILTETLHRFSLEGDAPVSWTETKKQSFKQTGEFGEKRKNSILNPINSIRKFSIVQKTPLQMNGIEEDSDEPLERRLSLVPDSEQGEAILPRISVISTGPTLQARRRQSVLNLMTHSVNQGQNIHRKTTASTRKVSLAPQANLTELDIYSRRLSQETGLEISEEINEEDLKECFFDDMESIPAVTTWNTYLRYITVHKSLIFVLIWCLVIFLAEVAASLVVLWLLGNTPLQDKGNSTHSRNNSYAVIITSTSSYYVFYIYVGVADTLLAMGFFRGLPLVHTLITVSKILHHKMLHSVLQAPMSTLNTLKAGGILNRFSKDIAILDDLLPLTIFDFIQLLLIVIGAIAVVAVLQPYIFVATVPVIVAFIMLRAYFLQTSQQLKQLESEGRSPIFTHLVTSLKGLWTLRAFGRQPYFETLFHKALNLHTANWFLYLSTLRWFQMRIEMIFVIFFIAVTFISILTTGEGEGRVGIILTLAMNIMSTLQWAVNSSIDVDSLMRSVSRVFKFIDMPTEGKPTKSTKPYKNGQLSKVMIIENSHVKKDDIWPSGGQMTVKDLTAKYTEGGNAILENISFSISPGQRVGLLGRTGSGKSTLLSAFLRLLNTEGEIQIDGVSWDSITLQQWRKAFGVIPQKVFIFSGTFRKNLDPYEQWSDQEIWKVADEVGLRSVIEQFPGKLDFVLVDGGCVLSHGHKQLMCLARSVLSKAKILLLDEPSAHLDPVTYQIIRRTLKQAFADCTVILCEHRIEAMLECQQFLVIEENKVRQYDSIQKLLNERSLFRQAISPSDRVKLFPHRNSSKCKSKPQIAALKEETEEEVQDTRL
Description: The effect of glycerol was measured by detecting either (1) the maturation of immature core-glycosylated endoplasmic reticulum forms of the ΔF508 CFTR to mature terminally glycosylated forms, or (2) the presence of forskolin-dependent chloride transport.
Western blotting using a commercially available anti-CFTR monoclonal antibody (panel 1A) or our polyclonal anti-CFTR antibody (Panel 1B) was performed using cell lysates from NIH 3T3 cells transfected with either the wild type or ΔF508 forms of CFTR. Andersen, M. P. et al., Science, 253:202 (1991). Both the polyclonal and monoclonal antibodies recognized the 140 kDa (core glycosylated, or B form) and 160 kDa (fully glycosylated, C form) forms of CFTR in lysates from wild type CFTR expressing cells. In contrast, only the 140 kDa core glycosylated CFTR was detected by the two antibodies in the lysates from cells transfected with the ΔF508 CFTR mutant.
In panel 1C, cells expressing the ΔF508 mutant were examined by Western blotting using the rabbit polyclonal antibody following their treatment at 37° C. with 1 M glycerol for 3 days. As a positive control, the ΔF508 CFTR expressing cells were incubated at 26° C. for 3 days.
The results of experiments to determine the optimal concentration of glycerol and the duration of glycerol treatment needed to elicit the highest levels of mutant ΔF508 CFTR maturation are summarized in FIG. 2. In panel 2A, cells expressing ΔF508 CFTR were incubated at 37° C. for 3 days in culture medium containing various concentrations of glycerol. The cells were harvested and then analyzed by Western blotting using the rabbit polyclonal anti-CFTR antibody. In panel 2B, cells expressing ΔF508 CFTR were incubated with 1.25 M glycerol at 37° C. for 1, 2 or 3 days and then analyzed by Western blotting as described in A. Glycerol concentrations of 1-1.25 M gave the maximal amount of mutant protein which was properly processed.
In Panel A of FIG. 22, 3T3 cells expressing the ΔF508 CFTR protein (via stable transfection) were treated with either 100 or 200 mM of the specified cellular osmolytes for 2 days. Cells were then lysed and examined by Western blot analysis. Wt represents cells expressing the wild type CFTR protein. B, G, T, S and M indicated cells treated with betaine, glucose, taurine, sorbitol and myoinositol, respectively.
In Panel A, cells expressing ΔF508 CFTR were incubated in the presence or absence of varying concentrations (25, 50, 100 mM) of osmolyte. After 2 days of growth, the cells were harvested and analyzed for their content of immature (band B) and mature (band C) forms of the CFTR protein by Western blotting. Cells expressing wild type CFTR (wt) were included as a positive control. In Panel B, cells expressing ΔF508 CFTR were incubated for 1 (1D), 2(2D) or 3 (3D) days in growth medium containing 150 mM of the indicated osmolyte. As a control, the same cells were incubated in normal growth medium. […] After 3 days of continuous treatment with 150 mM osmolyte there is see a “drop-off” of the amount of the C band.

[6] = target: T1, ΔF508 CFTR; assay: Forskolin stimulated chloride transport, SPQ fluorescence assay; type: cell-based; details: for forskolin dependent chloride efflux: 37° C.
Description: (§1) Forskolin-sensitive chloride transport was measured by the fluorescence assays method (FIG. 3). Briefly, ΔF508-CFTR expressing cells were grown on glass coverslips at 37° C. in the absence or presence of 1.25 M glycerol for 3 days. These cells, along with cells expressing wild type CFTR, then were examined for forskolin stimulated chloride transport using SPQ fluorescence assays, as described in: Verkman, A. S., Am. J. Physiol., 259:C375 (1990); Verkman, A. S. et al., in Methods in Neurosciences, Kraicer, J. et al., Eds. (Academic Press, 1995) vol. 27, 328. Plasma membrane chloride efflux was measured from the time course of increase in SPQ fluorescence in response to replacement of intracellular chloride by nitrate. Cells in the presence or absence of a protein stabilizing agent were incubated with 2 mM SPQ for 12-18 hrs. prior to measurements. The rate of chloride efflux was measured before and after stimulation of cAMP with forskolin. The reaction was quenched by the addition of 150 mM KSCN.
(§2) The positive effect of glycerol treatment on chloride conductance was concentration and time dependent (FIG. 3B). ΔF508 CFTR-expressing cells growing on glass coverslips were incubated with various concentrations of glycerol for 3 days and then examined for forskolin stimulated chloride transport. Alternatively, cells were incubated with 1.25 M glycerol for varying times (1, 2 or 3 days) and then analyzed for chloride transport following stimulation by forskolin.
Powdered DMEM medium (Gibco) was reconstituted in 100% distilled water or in 100% […]. Cells transfected with ΔF508 CFTR or mock transfected cells were incubated in either the distilled water or the dH2O containing culture medium for two days at 37° C., and then analyzed for forskolin dependent chloride efflux.
Both mock transfected cells and the cells transfected with ΔF508 CFTR were incubated in regular DMEM culture medium containing 100 mM TMAO for two days at 37° C. and then analyzed for forskolin dependent chloride efflux.
In contrast, cells treated with 4 different osmolytes now show partial chloride transport (note however that it never reaches the wild type levels, rather only about 10-30% of wild type).

[7] = target: T2, wild type CFTR protein (Homo sapiens, UniProt P13569); assay: Glycerol exposure of cells expressing wild type CFTR (Western blotting, chloride conductance); type: cell-based; details: data not shown
T2 construct: expressed in transfected cells; host or cells: NIH 3T3 fibroblasts
T2 sequence (P13569 whole entry): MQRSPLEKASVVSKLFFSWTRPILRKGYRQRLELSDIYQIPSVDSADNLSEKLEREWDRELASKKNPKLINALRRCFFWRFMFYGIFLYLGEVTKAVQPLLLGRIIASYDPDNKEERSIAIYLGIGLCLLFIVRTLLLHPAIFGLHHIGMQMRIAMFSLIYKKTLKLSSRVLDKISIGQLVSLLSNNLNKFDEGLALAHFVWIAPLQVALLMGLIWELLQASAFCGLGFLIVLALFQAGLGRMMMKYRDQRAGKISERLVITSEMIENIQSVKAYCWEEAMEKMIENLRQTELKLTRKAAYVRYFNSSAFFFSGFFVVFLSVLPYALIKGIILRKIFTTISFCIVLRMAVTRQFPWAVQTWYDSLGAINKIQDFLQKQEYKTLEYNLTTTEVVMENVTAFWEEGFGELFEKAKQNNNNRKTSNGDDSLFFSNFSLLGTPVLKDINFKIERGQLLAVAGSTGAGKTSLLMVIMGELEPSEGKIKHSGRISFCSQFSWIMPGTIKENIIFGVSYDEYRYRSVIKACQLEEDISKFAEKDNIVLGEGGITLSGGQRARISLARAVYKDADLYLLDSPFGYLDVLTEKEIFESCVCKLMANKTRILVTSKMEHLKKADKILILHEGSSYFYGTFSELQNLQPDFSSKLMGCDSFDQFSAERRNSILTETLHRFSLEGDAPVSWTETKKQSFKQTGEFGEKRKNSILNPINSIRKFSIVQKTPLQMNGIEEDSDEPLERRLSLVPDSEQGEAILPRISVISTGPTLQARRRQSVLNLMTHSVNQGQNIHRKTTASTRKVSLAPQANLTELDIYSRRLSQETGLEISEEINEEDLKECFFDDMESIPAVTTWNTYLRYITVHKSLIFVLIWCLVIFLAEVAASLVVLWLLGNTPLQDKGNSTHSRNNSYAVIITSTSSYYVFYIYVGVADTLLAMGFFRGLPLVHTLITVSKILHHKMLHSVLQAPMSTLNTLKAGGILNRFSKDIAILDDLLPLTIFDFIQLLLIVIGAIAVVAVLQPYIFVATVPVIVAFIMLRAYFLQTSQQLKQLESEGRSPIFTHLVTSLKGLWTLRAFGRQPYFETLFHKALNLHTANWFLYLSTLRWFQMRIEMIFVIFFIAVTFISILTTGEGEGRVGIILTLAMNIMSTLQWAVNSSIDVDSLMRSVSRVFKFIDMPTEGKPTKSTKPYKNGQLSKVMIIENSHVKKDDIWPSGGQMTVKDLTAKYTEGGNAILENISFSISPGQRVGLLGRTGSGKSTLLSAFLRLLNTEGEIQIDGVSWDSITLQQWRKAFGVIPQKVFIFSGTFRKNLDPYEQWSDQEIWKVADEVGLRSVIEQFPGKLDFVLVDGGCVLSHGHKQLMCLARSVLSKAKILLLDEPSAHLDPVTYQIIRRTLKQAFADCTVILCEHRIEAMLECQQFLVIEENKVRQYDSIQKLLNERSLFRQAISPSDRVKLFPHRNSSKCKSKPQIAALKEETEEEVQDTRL
Description: as §1, with “Cells in the presence or absence of a protein stabilizing agent were incubated with 2 mM SPQ for 12-18 hrs. prior to measurements.” left out, “The reaction was quenched by the addition of 150 mM KSCN.” left out
as §2

Chain of conversion of PrP^C to PrP^Sc (P04925 23-230 limits assumed): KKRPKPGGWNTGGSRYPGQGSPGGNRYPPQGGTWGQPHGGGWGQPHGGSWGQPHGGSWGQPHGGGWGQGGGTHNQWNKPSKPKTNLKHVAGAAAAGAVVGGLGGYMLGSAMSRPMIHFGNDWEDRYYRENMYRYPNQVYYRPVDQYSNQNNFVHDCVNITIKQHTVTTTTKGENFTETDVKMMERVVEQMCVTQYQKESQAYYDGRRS

C[S+](C)[O-] [DMSO, dimethylsulfoxide]
reduction of the amount of detergent insoluble PrP ([1]; ScN2a cells): over 50%
concentration adversely affecting the morphology and growth rates of the cells ([2]; mouse): ≥ 200 mM

[2H]O[2H] [deuterated water]
restoration of transformed phenotype / wild type pp60^src activity [3]: much less effective
p53 distribution 2 days following removal of the agent [4]: all of p53 now was found within the cytoplasm
CFTR processing in ΔF508 CFTR-expressing cells ([5]; deuterated water): competent to induce CFTR processing
forskolin dependent chloride efflux ([6]; medium in 100% dH2O, two days): exhibited forskolin-dependent chloride transport

OCC(O)CO [glycerol]
p53 distribution one day following removal of the agent [4]: no longer displayed a nuclear p53 distribution
effect on amount of mature wild type CFTR protein or forskolin dependent chloride conductance [7]: little or no effect
exogenously added MHM2 PrP in detergent fractions versus untreated ScN2a cells ([1]; 1 M glycerol 24 hrs, 40 hrs with MHM2 brain extract, 3F4 antibody): reduce the levels of the MHM2 protein in both the detergent soluble and insoluble fractions
glycerol concentrations also giving significant reduction in conversion of PrP^C to PrP^Sc ([1]; 3 days): 0.25-0.5 M
most effective glycerol concentration for reducing detergent insoluble PrP ([1]; 3 days, 0-1,000 mM tested): 1 M
overall levels of insoluble PrP versus non-glycerol treated cells ([1]; ScN2a cells, glycerol 24 hrs): marked reduction
PrP^C synthesis and movement of the newly synthesized protein to the plasma membrane (PIPLC release) ([1]; glycerol 24 hrs, PIPLC 5 U/ml 4 hrs): does not significantly affect
overall extent of PrP^C to PrP^Sc conversion relative to untreated cells (pulse-chase) ([1]; glycerol 3 days, then 5 days without glycerol): marked reduction
rate or overall extent of PrP^C synthesis (metabolic labeling) ([1]; presence versus absence of glycerol): no significant differences
mature ΔF508 CFTR protein by Western blotting ([5]; 1 M glycerol, 37° C., 3 days): significant amounts of the mature ΔF508 CFTR protein
duration of treatment giving maximal amounts of fully glycosylated ΔF508 CFTR protein ([5]; 1.25 M glycerol, 37° C.): 3 days
glycerol concentration giving the maximal amount of properly processed mutant protein ([5]; 37° C., 3 days): 1 to 1.25 M
effect of higher doses on fully glycosylated ΔF508 CFTR ([5]; doses higher than 1-1.25 M, 3 days): inhibitory
forskolin stimulated chloride transport ([6]; 1.25 M glycerol, one day): forskolin stimulated chloride transport was observed
concentration giving maximal rates of chloride efflux ([6]; 3 days): 1.25 M
lowest concentration with increased chloride transport ([6]; 3 days): 0.5 M

C[N+](C)(C)[O-] [TMAO, trimethylamine N-oxide]
restoration of transformed phenotype / wild type pp60^src activity [3]: much less effective
p53 distribution 2 days following removal of the agent [4]: all of p53 now was found within the cytoplasm
reduction of the amount of detergent insoluble PrP ([1]; ScN2a cells): over 50%
forskolin dependent chloride efflux ([6]; 100 mM TMAO, 2 days): Forskolin dependent chloride transport was observed
concentration adversely affecting the morphology and growth rates of the cells [2]: ≥ 200 mM
